In patent US7067248B2 (priority 2002, dated 2006):

Columns and labels:
VV [1] = type: cell-based, vaccinia virus
orthopoxvirus = settings: cited from earlier work
VV [2] = settings: cited from earlier work

With c1cnc2c(c1)ccc1ncccc12 [1,7-phenanthroline] as the molecule, how does the VV replication (VV [1]) read?
Its VV replication is “no effect”.

With c1cnc2c(c1)ccc1cccnc12 [1,10-phenanthroline] as the molecule, how does the “Inhibition of VV replication (FIG. 12)” value (VV [1]) read?
The value was “potent inhibitors of VV replication”.

What about the VV replication (VV [1]) of the same molecule?
The VV replication was “completely blocked”.

Which Anti-orthopoxvirus activity (orthopoxvirus) does the source give for Nc1ccn(C[C@@H](CO)OCP(=O)(O)O)c(=O)n1 [Cidofovir] here?
Its Anti-orthopoxvirus activity is “potent anti-orthopoxvirus inhibitor”.

Which “Inhibition of VV replication (FIG. 12)” value (VV [1]) does the source give for NC(=O)CI [iodoacetamide] here?
The value was “potent inhibitors of VV replication”.

What about the VV replication (VV [1]) of the same molecule?
The VV replication was “completely blocked”.

Which Anti-orthopoxvirus activity (orthopoxvirus) does the source give for CN1C(=O)/C(=N\NC(N)=S)c2ccccc21 [methisazone, N-methylisatin β-thiosemicarbazone] here?
The Anti-orthopoxvirus activity was “effective at inhibiting orthopoxvirus infections in cultured cells”.

Which VV replication (VV [1]) does the source give for pepstatin A here?
The VV replication was “no effect”.

For α-amanitin, which “Phenotype of VV replication” value (VV [2]) is on record?
The value was “abortive-late phenotype”.
